Columns and labels:
Setaria faberi (SETFA) [1] = assay: Test 1A glasshouse assay, post-emergence herbicidal activity; format: in vivo; settings: 312 h, 13 days after application, read-out: Post-Emergence Herbicidal Activity (% Phytotoxicity) SET FA
Protocol: (§1) Seeds of a variety of test species are sown in standard soil (usually sandy soil) in pots. After cultivation for one day (pre-emergence) or after 8 days cultivation (post-emergence) under controlled conditions in a glasshouse (at 24/16° C., day/night; 14 hours light; 65% humidity), the plants are sprayed with an aqueous spray solution derived from the formulation of the technical active ingredient (compound) in acetone/water (50:50) solution containing 0.5% Tween 20 (polyoxyethylene sorbitan monolaurate, CAS RN 9005-64-5). The test plants are then grown under controlled conditions in a glasshouse (at 24/16° C., day/night; 14 hours light; 65% humidity) and watered twice daily. 13 days after application of the test compounds, for pre- and post-emergence, the test is evaluated visually for percentage phytotoxicity to each plant (where 100%=total damage to plant; 0%=no damage to plant).
(§2) Alopecurus myosuroides (ALOMY), Setaria faberi (SETFA), Echinochloa crus-galli (ECHCG), Amaranthus retroflexus (AMARE), and Abutilon theophasti Medik. (ABUTH, common English name “velvetleaf”). Of these, Alopecurus myosuroides (ALOMY), Setaria faberi (SETFA), and Echinochloa crus-galli (ECHCG) are grassy monocotyledonous weeds.

[2] = tested on: Abutilon theophasti Medik. (ABUTH); assay: as above; format: in vivo; settings: 312 h, 13 days after application, read-out: Post-Emergence Herbicidal Activity (% Phytotoxicity) ABUTH
Protocol: as §1, §2

[3] = tested on: Amaranthus retroflexus (AMARE); assay: as above; format: in vivo; settings: 312 h, 13 days after application, read-out: Post-Emergence Herbicidal Activity (% Phytotoxicity) AMARE
Protocol: as §1, §2

[4] = tested on: Alopecurus myosuroides (ALOMY); assay: Test 1A glasshouse assay, pre-emergence herbicidal activity; format: in vivo; settings: 312 h, 13 days after application, read-out: Pre-Emergence Herbicidal Activity (% Phytotoxicity) ALOMY
Protocol: as §1, §2
Lolium perenne (LOLPE), Triticum aestivum (TRZAW, winter wheat), Alopecurus myosuroides (ALOMY), Echinochloa crus-galli (ECHCG), and Avena fatua (AVEFA). All these are grassy monocotyledonous weeds and/or (for wheat) grassy crops.

ZEAMX = assay: Biological Example 3 (Test 2 glasshouse assay), post-emergence herbicidal activity; format: in vivo
Protocol: (§3) Seeds of a variety of monocotyledonous and dicotyledonous test plants are sown in standard soil in pots. The plants are cultivated for one day (for pre-emergence) or for about 12 days (range=10-13 days) (for post-emergence) under controlled conditions in a glasshouse (warm climate species at 24/18° C., cool climate species at 20/16° C., both at day/night; 16 hours light; 65% humidity). An “instant formulation”, known as the “IF50”, containing 50 g/litre (i.e. 5% w/v) of the “technical” (i.e. unformulated) active ingredient is prepared by dissolving the active ingredient in a mixture of organic solvents and emulsifier, details of which are provided in the Table below. This IF50 is then mixed with a small, variable amount of acetone to aid dissolution, before addition of a 0.2% v/v aqueous solution of the adjuvant X-77 (which is a mixture of alkyl aryl polyoxyethylene glycols and free fatty acids in isopropanol, CAS Registry number 11097-66-8), as the aqueous diluent, to form an aqueous spray solution which contains a predetermined concentration of the active ingredient (which varies depending on the application rate of the active ingredient to the plants) and 0.2% v/v of the adjuvant X-77. This aqueous spray solution is then sprayed onto the plants, after one day's cultivation (for pre-emergence) or after about 12 days' cultivation (for post-emergence). The test plants are then grown on, in a glasshouse (greenhouse) under controlled conditions (at either 24/18° C. or 20/16° C. (day/night) as mentioned above; 16 hours light; 65% humidity) and are watered twice daily. Either 15 days after application of the test compound (15 DAA) (for post-emergence), or 20 days after application of the test compound (20 DAA) (for pre-emergence), the test plants are evaluated visually, and an assessed percentage phytotoxicity score is given for each compound application on each plant species (where 100%=total damage to plant; 0%=no damage to plant).

Setaria faberi (SETFA) [5] = assay: Test 1A glasshouse assay, pre-emergence herbicidal activity; format: in vivo; settings: 312 h, 250 g/ha, 13 days after application, read-out: Pre-Emergence Herbicidal Activity (% Phytotoxicity) SET FA
Protocol: as §1, §2

[6] = tested on: Abutilon theophasti Medik. (ABUTH); assay: as above; format: in vivo; settings: 312 h, 250 g/ha, 13 days after application, read-out: Pre-Emergence Herbicidal Activity (% Phytotoxicity) ABUTH
Protocol: as §1, §2

[7] = tested on: Amaranthus retroflexus (AMARE); assay: as above; format: in vivo; settings: 312 h, 250 g/ha, 13 days after application, read-out: Pre-Emergence Herbicidal Activity (% Phytotoxicity) AMARE
Protocol: as §1, §2

[8] = tested on: Echinochloa crus-galli (ECHCG); assay: as above; format: in vivo; settings: 312 h, 13 days after application, read-out: Pre-Emergence Herbicidal Activity (% Phytotoxicity) ECHCG
Protocol: as §1
Alopecurus myosuroides (ALOMY), Setaria faberi (SETFA), Echinochloa crus-galli (ECHCG), Amaranthus retroflexus (AMARE), and Abutilon theophasti Medik. (ABUTH, common English name “velvetleaf”). Of these, Alopecurus myosuroides (ALOMY), Setaria faberi (SETFA), and Echinochloa crus-galli (ECHCG) are grassy monocotyledonous weeds. […]

POAAN = assay: Biological Example 3 (Test 2 glasshouse assay), post-emergence herbicidal activity; format: in vivo, Poa annua
Protocol: as §3

Row | Structure (SMILES) | inhibition at 250 g/ha (Setaria faberi (SETFA) [1]) [%] | inhibition at 250 g/ha [2] [%] | inhibition at 250 g/ha [3] [%] | inhibition at 250 g/ha [4] [%] | Post-Emergence Herbicidal Activity (Percentage Phytotoxicity) ZEAMX (ZEAMX; 30 g/ha (rate by row order)) [%] | Post-Emergence Herbicidal Activity (Percentage Phytotoxicity) ZEAMX (ZEAMX; 125 g/ha (rate by row order)) [%] | inhibition at 250 g/ha (Setaria faberi (SETFA) [5]) [%] | inhibition at 250 g/ha [6] [%] | inhibition at 250 g/ha [7] [%] | inhibition at 250 g/ha [8] [%] | Post-Emergence Herbicidal Activity (Percentage Phytotoxicity) POAAN (POAAN; 30 g/ha (rate by row order)) [%] | Post-Emergence Herbicidal Activity (Percentage Phytotoxicity) POAAN (POAAN; 125 g/ha (rate by row order)) [%] | inhibition at 30 g/ha (Setaria faberi (SETFA) [1]) [%] | inhibition at 30 g/ha [2] [%] | inhibition at 30 g/ha [3] [%] | Post-Emergence Herbicidal Activity (Percentage Phytotoxicity) ZEAMX (ZEAMX; 8 g/ha (rate by row order)) [%] | Post-Emergence Herbicidal Activity (Percentage Phytotoxicity) POAAN (POAAN; 8 g/ha (rate by row order)) [%] | inhibition at 62.5 g/ha ([4]; 62.5 g/ha) [%] | inhibition at 62.5 g/ha ([8]; 62.5 g/ha) [%]
1 | CC#Cc1cc(C)c(C2C(=O)N3CCCCCN3C2=O)c(C)c1 [Compound A23, 2-(2,6-dimethyl-4-prop-1-ynyl-phenyl)-6,7,8,9-tetrahydro-5H-pyrazolo[1,2-a]diazepine-1,3-dione] | 80 | 60 | 30 | 90 | 0 | 30 | 50 | 10 | 80 | 90 | 10 | 70 |  |  |  |  |  |  | 
2 | CC#Cc1cc(C)c(-c2c(OC(=O)C(C)(C)C)n3n(c2=O)CCOCC3)c(C)c1 [Compound P4] | 100 | 70 | 10 | 100 | 90 | 100 | 100 | 80 | 100 | 100 | 70 | 90 | 70 | 70 | 0 | 30 | 50 |  | 
3 | CC#Cc1cc(C)c(C2C(=O)N(C)N(C)C2=O)c(C)c1 [Compound A1] | 40 | 10 | 0 | 0 | 90 | 100 | 30 | 0 | 0 | 30 | 50 | 80 |  |  |  |  |  |  | 
4 | CC#Cc1cc(C)c(-c2c(OC(=O)C(C)(C)C)n(C)n(C)c2=O)c(C)c1 [Compound P1] | 90 | 70 | 20 | 100 | 70 | 100 | 100 | 10 | 10 | 100 | 0 | 70 | 70 | 30 | 0 | 60 | 0 |  | 
5 | CC#Cc1cc(C)c(C2C(=O)C(Cc3ccccn3)N(C)C2=O)c(C)c1 (centres unmarked) [Compound A50, 3-(2,6-dimethyl-4-prop-1-ynyl-phenyl)-1-methyl-5-(2-pyridylmethyl)pyrrolidine-2,4-dione] |  |  |  | 90 |  |  |  |  |  | 90 |  |  |  |  |  |  |  | 70 | 70

Source: US20160219881A1, “HERBICIDALLY ACTIVE 2-HALOGEN-4-ALKYNYL-PHENYL-PYRAZOLIDINE-DIONE OR PYRROLIDINE-DIONE DERIVATIVES” (SYNGENTA LIMITED, priority 2013, published 2016)
